Results: patent US20110301200A1, “THYROID RECEPTOR LIGANDS” (CADILA HEALTHCARE LIMITED, priority 2008, published 2011)

Legend:
[1] = biological target: T1, TR-α (Homo sapiens, UniProt P10827); assay: In vitro TR-α activity (in-house protocol); type: cell-based; settings: for fold induction at 0.001 µM: Conc. 1 nM; for fold induction at 0.001 µM / fold induction at 0.01 µM / fold induction at 0.1 µM / fold induction at 1 µM: read-out: TR-α Fold Induction w.r.t T3(100 nm); for fold induction at 0.01 µM: Conc. 10 nM; for fold induction at 0.1 µM: Conc. 100 nM; for fold induction at 1 µM: Conc. 1000 nM
T1 sequence (P10827 1-410 isoform P10827-2): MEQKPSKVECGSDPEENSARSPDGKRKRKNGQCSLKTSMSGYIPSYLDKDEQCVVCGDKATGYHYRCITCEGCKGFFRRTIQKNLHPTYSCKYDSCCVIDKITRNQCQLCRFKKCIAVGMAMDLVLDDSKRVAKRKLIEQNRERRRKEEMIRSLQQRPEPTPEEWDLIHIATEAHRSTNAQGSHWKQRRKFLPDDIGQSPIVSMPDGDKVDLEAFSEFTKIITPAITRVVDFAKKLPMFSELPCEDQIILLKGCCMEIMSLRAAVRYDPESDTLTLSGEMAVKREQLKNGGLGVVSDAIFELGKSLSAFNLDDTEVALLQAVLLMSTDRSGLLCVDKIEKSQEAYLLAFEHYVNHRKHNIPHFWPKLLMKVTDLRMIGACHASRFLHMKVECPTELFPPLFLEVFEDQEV
Method: (§1) In vitro TR-α & TR-β activities were determined as per in-house protocols and the results of representative compounds are provided in tables 1 & 2 below as a proof of the efficacies of the novel class of compounds disclosed above.

[2] = tested on: cholesterol-fed rats; assay: Cholesterol lowering and change in heart rate in cholesterol-fed rats; type: in vivo, rat; settings: treated for 7 days
Method: Cholesterol lowering effect of T3 and selected compounds disclosed in the present invention on cholesterol lowering and change in heart rate in cholesterol-fed rats (treated for 7 days) was determined according to the general protocol described in PNAS, vol. […] Therefore, these compounds have the potential to be further developed as selective TR-beta agonists for the treatment of human & other animals in need of such treatment.

[3] = biological target: T2, TR-β (Homo sapiens, UniProt P10828); assay: In vitro TR-β activity (in-house protocol); type: cell-based; settings: for fold induction at 0.001 µM: Conc. 1 nM; for fold induction at 0.001 µM / fold induction at 0.01 µM / fold induction at 0.1 µM / fold induction at 1 µM: read-out: TR-β Fold Induction w.r.t T3(100 nm); for fold induction at 0.01 µM: Conc. 10 nM; for fold induction at 0.1 µM: Conc. 100 nM; for fold induction at 1 µM: Conc. 1000 nM
T2 sequence (P10828 1-461): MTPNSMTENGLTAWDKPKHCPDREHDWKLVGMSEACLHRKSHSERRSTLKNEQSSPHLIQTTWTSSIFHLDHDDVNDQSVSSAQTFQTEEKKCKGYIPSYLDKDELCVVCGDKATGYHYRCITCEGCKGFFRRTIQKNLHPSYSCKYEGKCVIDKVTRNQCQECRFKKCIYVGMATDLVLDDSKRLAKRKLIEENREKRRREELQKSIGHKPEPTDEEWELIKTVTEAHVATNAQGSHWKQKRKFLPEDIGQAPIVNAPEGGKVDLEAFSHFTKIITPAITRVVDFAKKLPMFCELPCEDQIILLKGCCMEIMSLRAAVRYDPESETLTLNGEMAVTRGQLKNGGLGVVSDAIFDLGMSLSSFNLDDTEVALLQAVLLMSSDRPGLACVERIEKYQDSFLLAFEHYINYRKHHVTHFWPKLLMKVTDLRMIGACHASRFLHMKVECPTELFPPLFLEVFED
Method: as §1

| SMILES | fold induction at 0.001 µM [1] | fold induction at 0.01 µM [1] | fold induction at 0.1 µM [1] | fold induction at 1 µM [1] | % Change in Heart Rate ([2]; oral 0.5 mg/kg) [%] | % Change in Total Cholesterol ([2]; oral 0.5 mg/kg) [%] | fold induction at 0.001 µM [3] | fold induction at 0.01 µM [3] | fold induction at 0.1 µM [3] | fold induction at 1 µM [3] | EC50 [1] [nM] | % Change in Heart Rate ([2]; oral 0.2 mg/kg) [%] | % Change in Total Cholesterol ([2]; oral 0.2 mg/kg) [%] | EC50 [3] [nM] | % Change in Heart Rate ([2]; oral 0.1 mg/kg) [%] | % Change in Total Cholesterol ([2]; oral 0.1 mg/kg) [%] | % Change in Heart Rate ([2]; oral 13 μg/kg) [%] | % Change in Total Cholesterol ([2]; oral 13 μg/kg) [%] |
| --- | --- | --- | --- | --- | --- | --- | --- | --- | --- | --- | --- | --- | --- | --- | --- | --- | --- | --- |
| CC(C)c1cc(Oc2c(Br)cc(C=NOCC(=O)O)cc2Br)ccc1O [Example 3, 2-(((3,5-dibromo-4-(4-hydroxy-3-isopropylphenoxy)benzylidene)amino)oxy)acetic acid] | 18.3 | 38.5 | 93.8 | 133 | 4.2 | −68 | 17.7 | 49.5 | 92.1 | 138 |  |  |  |  |  |  |  |  |
| CC(ON=Cc1cc(Br)c(Oc2ccc(O)c(C(C)C)c2)c(Br)c1)C(=O)O (centres unmarked) [Example 10, 2-(((3,5-dibromo-4-(4-hydroxy-3-isopropylphenoxy)benzylidene)amino)oxy)propanoic acid] |  |  |  |  |  |  |  |  |  |  | 25 | 9.5 | −45 | 3.25 |  |  |  |  |
| CCC(C)c1cc(Oc2c(Br)cc(C=NOC(C)C(=O)O)cc2Br)ccc1O (centres unmarked) [Example 14, 2-(((3,5-dibromo-4-(3-(sec-butyl)-4-hydroxyphenoxy)benzylidene)amino)oxy)propanoic acid] |  |  |  |  |  |  |  |  |  |  | 5.12 |  |  | 0.99 | −2 | −44 |  |  |
| CC(C)NS(=O)(=O)c1cc(Oc2c(Br)cc(C=NOC(C)C(=O)O)cc2Br)ccc1O (centres unmarked) [Example 37, 2-(((3,5-dibromo-4-(4-hydroxy-3-(N-isopropylsulfamoyl)phenoxy)benzylidene)amino)oxy)propanoic acid] | 11.2 | 11.5 | 17.6 | 45.6 |  |  | 8.41 | 9.07 | 17.7 | 60.5 |  |  |  |  |  |  |  |  |
| CCN(CC)S(=O)(=O)c1cc(Oc2c(Br)cc(C=NOC(C)C(=O)O)cc2Br)ccc1O (centres unmarked) [Example 38, 2-(((3,5-dibromo-4-(3-(N,N-diethylsulfamoyl)-4-hydroxyphenoxy)benzylidene)amino)oxy)propanoic acid] | 10.1 | 16.4 | 25.3 | 76.2 |  |  | 11.8 | 13.6 | 25 | 82.2 |  |  |  |  |  |  |  |  |
| CC(ON=Cc1cc(Br)c(Oc2ccc(O)c(S(=O)(=O)NC3CCCCC3)c2)c(Br)c1)C(=O)O (centres unmarked) [Example 39, 2-(((3,5-dibromo-4-(3-(N-cyclohexylsulfamoyl)-4-hydroxyphenoxy)benzylidene)amino)oxy)propanoic acid] | 10.6 | 11.8 | 13.5 | 29.5 |  |  | 11.5 | 11.2 | 15.8 | 40.4 |  |  |  |  |  |  |  |  |
| CC(ON=Cc1cc(Br)c(Oc2ccc(O)c(S(=O)(=O)N[C@@H]3C[C@H]4CC[C@@H]3C4)c2)c(Br)c1)C(=O)O (stereo partly drawn) [Example 40, 2-(((4-(3-(N-((1R,2R,4S)-bicyclo[2.2.1]heptan-2-yl)sulfamoyl)-4-hydroxyphenoxy)-3,5-dibromobenzylidene)amino)oxy)propanoic acid] | 10.7 | 9.07 | 10.1 | 16.7 |  |  | 10.1 | 9.01 | 10.9 | 36.5 |  |  |  |  |  |  |  |  |
| O=C(O)CON=Cc1cc(Br)c(Oc2ccc(O)c(S(=O)(=O)N3CCCC3)c2)c(Br)c1 [Example 41, 2-(((3,5-dibromo-4-(4-hydroxy-3-(pyrrolidin-1-ylsulfonyl)phenoxy)benzylidene)amino)oxy)acetic acid] | 12.6 | 12.8 | 17.7 | 46.1 |  |  | 6.51 | 6.74 | 14 | 58.1 |  |  |  |  |  |  |  |  |
| CC(ON=Cc1cc(Br)c(Oc2ccc(O)c(S(=O)(=O)N3CCCC3)c2)c(Br)c1)C(=O)O (centres unmarked) [Example 42, 2-(((3,5-dibromo-4-(4-hydroxy-3-(pyrrolidin-1-ylsulfonyl)phenoxy)benzylidene)amino)oxy)propanoic acid] | 17.7 | 9.9 | 20.4 | 91.4 |  |  | 7.3 | 4.48 | 15 | 60.8 |  |  |  |  |  |  |  |  |
| N[C@@H](Cc1cc(I)c(Oc2ccc(O)c(I)c2)c(I)c1)C(=O)O [Example T3, reference compound] |  |  |  |  |  |  |  |  |  |  |  |  |  |  |  |  | 14 | −46 |
